Key:
HL-60 = assay: MTT assay, HL-60 cells; type: cell-based; details: Homo sapiens
Protocol: (§1) MTT (3-(4,5-Dimethylthiazol-2-yl)-2,5-diphenyltetrazolium bromide) assays.^21,22 HL-60, HCT-116, Hep 3B, H460, Detroit 551 and HT29/FuR cells were treated with tested compounds for the indicated periods. After treatment, cells were washed once with PBS and incubated with MTT (Sigma, St. Louis, Mo., USA) for 2 h. The formazan precipitate was dissolved in 150 μL of DMSO, and the absorbance was measured with an ELISA reader at 570 nm.
(§2) HL-60, Hep 3B, H460, MES-SA, MES-SAID x5 and Detroit 551 cells were treated with vehicle or test compounds for 48 h. The cell growth rate was determined by MTT (3-(4,5-dimethyl-thiazol-2-yl)-2,5-diphenyltetrazoliun bromide) reduction assay.
(§3) MTT (3-(4,5-Dimethylthiazol-2-yl)-2,5-diphenyltetrazolium bromide) assays. HL-60, HCT-116, A549, Hep 3B, KB, Kb-VIN and DU145 cells were treated with tested compounds for the indicated periods. After treatment, cells were washed once with PBS and incubated with MTT (Sigma, St. Louis, Mo., USA) for 2 h. The formazan precipitate was dissolved in 150 μL of DMSO, and the absorbance was measured with an ELISA reader at 570 nm.
(§4) MTT (3-(4,5-Dimethylthiazol-2-yl)-2,5-diphenyltetrazolium bromide) assays. HL-60, Hep 3B, H460, A498, Colo205 and Detroit 551 cells were treated with tested compounds for the indicated periods. After treatment, cells were washed once with PBS and incubated with MTT (Sigma, St. Louis, Mo., USA) for 2 h. The formazan precipitate was dissolved in 150 μL of DMSO, and the absorbance was measured with an ELISA reader at 570 nm.

HCT116 = assay: MTT assay, HCT-116 cells; type: cell-based; details: Homo sapiens, Table 1, 48 h
Protocol: as §1, §3

Hep3B = assay: MTT assay, Hep 3B cells; type: cell-based; details: Homo sapiens
Protocol: as §1, §2, §3, §4

H460 = assay: MTT assay, H460 cells; type: cell-based; details: Homo sapiens, NCI-H460
Protocol: as §1, §2, §4

Detroit 551 = assay: MTT assay, Detroit 551 normal human cells; type: cell-based; details: for IC50: Detroit 551
Protocol: as §1, §2, §4

HT29/5FuR = assay: MTT assay, HT29/5FuR cells; type: cell-based; details: Homo sapiens, HT-29, Table 1, 48 h
Protocol: as §1

[1] = tested on: HL-60, HCT-116, Hep3B, H-460; assay: Cytotoxicity screen (MTT) against human cancer cell lines, results in words; type: cell-based; details: comparison within sub-series or with CHM-2133
Protocol: as §1, §2

MES-SA = assay: MTT assay, MES-SA cells; type: cell-based; details: Homo sapiens, 48 hrs
Protocol: as §2

MES-SA/Dx5 = assay: MTT assay, MES-SA/Dx5 cells; type: cell-based, human; details: for IC50: Homo sapiens, MES-SA/Dx5, 48 hrs; for Ratio Of SA/Dx5: IC50 MES-SA/Dx5 over IC50 MES-SA
Protocol: as §2

[2] = Table 1, 48 h, MTT, normal human cell
[3] = Homo sapiens, Table 2, B-1 series, 48 hrs

Structure (SMILES) | IC50 (HL-60; Table 1, 48 h, MTT) | IC50 (HCT116) | IC50 (Hep3B; Table 1, 48 h, MTT) | IC50 (H460; Table 1, 48 h, MTT) | IC50 (Detroit 551; [2]) | IC50 (HT29/5FuR) | cytotoxicity (in words) [1] | melting point | other results
COc1ccc2c(c1OC)C(=O)CC(c1cccc(F)c1)=N2 [Compound 17, 2-(3-Fluorophenyl)-5,6-dimethoxyquinolin-4-one] | 1.3 µM | 1.2 µM | 2.6 µM | 3.5 µM | 100 µM | 1.96 µM | strongest cytotoxicity | 190 to 192 °C | –
COc1ccc2c(c1OC)C(=O)CC(c1ccc(F)cc1)=N2 [Compound 18, 2-(4-Fluorophenyl)-5,6-dimethoxyquinolin-4-one] | 2 µM | > 20 µM | > 20 µM | > 20 µM | > 20 µM | 2.02 µM | weaker | 227 to 229 °C | –
O=C1CC(c2ccccc2F)=Nc2ccc3c(c21)OCO3 [Compound 19, 2-(2-Fluorophenyl)-5,6-methylenedioxyquinolin-4-one] | 1 µM | 2.1 µM | 1.9 µM | 4.5 µM | > 10 µM | 0.69 µM | significant cytotoxicity | 282 to 283 °C | –
O=C1CC(c2cccc(F)c2)=Nc2ccc3c(c21)OCO3 [Compound 20, 2-(3-Fluorophenyl)-5,6-methylenedioxyquinolin-4-one] | 0.7 µM | 2.5 µM | 2.4 µM | 3.2 µM | > 5 µM | 0.82 µM | significant cytotoxicity | 286 to 288 °C | –
O=C1CC(c2ccc(F)cc2)=Nc2ccc3c(c21)OCO3 [Compound 21, 2-(4-Fluorophenyl)-5,6-methylenedioxyquinolin-4-one] | > 10 µM | > 10 µM | > 10 µM | > 10 µM | > 10 µM | 0.53 µM | weaker | 286 to 288 °C | –
COc1ccc2c(c1O)C(=O)CC(c1cccc(F)c1)=N2 [Compound 38, 2-(3-Fluorophenyl)-5-hydroxy-6-methoxyquinolin-4-one] | 0.039 µM | 0.073 µM | 0.078 µM | 0.088 µM | > 50 µM | 0.26 µM | greater cytotoxicity | – | toxicity toward Detroit 551 normal human cell (in words) (Detroit 551; Table 1 compounds): lower toxicity
COc1ccc2c(c1O)C(=O)CC(c1ccc(F)cc1)=N2 [Compound 39, 2-(4-Fluorophenyl)-5-hydroxy-6-methoxyquinolin-4-one] | 1.8 µM | 2.4 µM | 11 µM | 8.8 µM | > 25 µM | 0.33 µM | weaker | – | –
O=C1CC(c2ccccc2F)=Nc2ccc(O)c(O)c21 [Compound 40, 2-(2-Fluorophenyl)-5,6-dihydroxyquinolin-4-one] | 0.5 µM | 0.6 µM | 3.9 µM | 4.1 µM | > 100 µM | 1.63 µM | greater cytotoxicity | – | –
O=C1CC(c2cccc(F)c2)=Nc2ccc(O)c(O)c21 [Compound 41, 2-(3-Fluorophenyl)-5,6-dihydroxyquinolin-4-one] | 0.3 µM | 8.2 µM | 6.9 µM | 6.1 µM | > 100 µM | 0.53 µM | greater cytotoxicity | – | –
COc1cc2c(cc1O)N=C(c1ccccc1F)CC2=O [Compound 43, 2-(2-Fluorophenyl)-7-hydroxy-6-methoxyquinolin-4-one] | 1.3 µM | 5.8 µM | 5.3 µM | 4.4 µM | 29.7 µM | 0.29 µM | greater cytotoxicity | 277 to 279 °C | –
COc1cc2c(cc1O)N=C(c1cccc(F)c1)CC2=O [Compound 44, 2-(3-Fluorophenyl)-7-hydroxy-6-methoxyquinolin-4-one] | 0.9 µM | 1.1 µM | 5.3 µM | 4.8 µM | 10 µM | 0.3 µM | greater cytotoxicity | 326 to 328 °C | –
COc1cc2c(cc1O)N=C(c1ccc(F)cc1)CC2=O [Compound 45, 2-(4-Fluorophenyl)-7-hydroxy-6-methoxyquinolin-4-one] | 38.2 µM | > 100 µM | > 100 µM | > 100 µM | > 100 µM | 0.37 µM | weaker | 352 to 354 °C | –
COc1ccc(OC)c(C2=Nc3ccc(N4CCOCC4)cc3C(=O)C2)c1 [Compound 128, 2-(2,5-Dimethoxyphenyl)-6-morpholinoquinolin-4-one] | – | – | – | – | – | – | – | – | IC50 (HL-60; Table 2, B-1 series, 48 hrs): 1.2 µM; IC50 (Hep3B; Table 2, B-1 series, 48 hrs): 3.11 µM; IC50 (H460; Table 2, B-1 series, 48 hrs): 3.47 µM; IC50 (Detroit 551; [3]): 16.6 µM; IC50 (MES-SA; Table 2, B-1 series): 2.03 µM; IC50 (MES-SA/Dx5; Table 2, B-1 series): 8.21 µM; Ratio Of SA/Dx5 (MES-SA/Dx5; Table 2, B-1 series): 4.04
COc1ccccc1C1=Nc2ccc(N3CCOCC3)cc2C(=O)C1 [Compound 130, 2-(2-Methoxyphenyl)-6-morpholinoquinolin-4-one] | – | – | – | – | – | – | – | 262 to 264 °C | IC50 (HL-60; Table 2, B-1 series, 48 hrs): 2.48 µM; IC50 (H460; Table 2, B-1 series, 48 hrs): 7.36 µM; IC50 (Detroit 551; [3]): > 20 µM; IC50 (MES-SA; Table 2, B-1 series): 2.5 µM; IC50 (MES-SA/Dx5; Table 2, B-1 series): 9.71 µM; Ratio Of SA/Dx5 (MES-SA/Dx5; Table 2, B-1 series): 3.88
O=C1CC(c2ccccc2O)=Nc2ccc(N3CCOCC3)cc21 [Compound 134, 2-(2-Hydroxyphenyl)-6-morpholinoquinolin-4-one] | – | – | – | – | – | – | – | – | IC50 (HL-60; Table 2, B-1 series, 48 hrs): 2.1 µM; IC50 (Hep3B; Table 2, B-1 series, 48 hrs): 8.78 µM; IC50 (H460; Table 2, B-1 series, 48 hrs): 8.3 µM; IC50 (Detroit 551; [3]): > 100 µM; IC50 (MES-SA; Table 2, B-1 series): 2.38 µM; IC50 (MES-SA/Dx5; Table 2, B-1 series): 10.4 µM; Ratio Of SA/Dx5 (MES-SA/Dx5; Table 2, B-1 series): 4.38
O=C1CC(c2cc(O)ccc2O)=Nc2ccc(N3CCOCC3)cc21 [Compound 144a, 2-(2,5-dihydroxyphenyl)-6-morpholinoquinolin-4-one] | – | – | – | – | – | – | – | – | IC50 (HL-60; Table 3, B-2 series, 48 hrs): 1.62 µM; IC50 (Hep3B; Table 3, B-2 series, 48 hrs): 7.38 µM; IC50 (H460; Table 3, B-2 series, 48 hrs): 6.5 µM; IC50 (Detroit 551; Homo sapiens, Table 3, B-2 series, 48 hrs): 9.1 µM; IC50 (MES-SA; Table 3, B-2 series): 3.69 µM; IC50 (MES-SA/Dx5; Table 3, B-2 series): 25 µM; Ratio Of SA/Dx5 (MES-SA/Dx5; Table 3, B-2 series): 6.78
